This experiment concerns the target Cdk9/cyclinT1 (Homo sapiens, UniProt P50750). Kind of experiment: Cdk9/cyclinT1 IMAP protocol (fluorescence polarization). The settings on record: IC-50, CDK9; lower limit of assay 0.0005 micromolar. In general terms: Fluorescence polarisation rises when a labelled molecule tumbles more slowly, as on binding a larger partner.

Molecules are shown by their SMILES.

For orientation: IC50 means the midpoint of a concentration-inhibition curve. Low readings indicate inhibition by little substance, high ones a need for much substance.

Chain of Cdk9/cyclinT1 (P50750 whole entry): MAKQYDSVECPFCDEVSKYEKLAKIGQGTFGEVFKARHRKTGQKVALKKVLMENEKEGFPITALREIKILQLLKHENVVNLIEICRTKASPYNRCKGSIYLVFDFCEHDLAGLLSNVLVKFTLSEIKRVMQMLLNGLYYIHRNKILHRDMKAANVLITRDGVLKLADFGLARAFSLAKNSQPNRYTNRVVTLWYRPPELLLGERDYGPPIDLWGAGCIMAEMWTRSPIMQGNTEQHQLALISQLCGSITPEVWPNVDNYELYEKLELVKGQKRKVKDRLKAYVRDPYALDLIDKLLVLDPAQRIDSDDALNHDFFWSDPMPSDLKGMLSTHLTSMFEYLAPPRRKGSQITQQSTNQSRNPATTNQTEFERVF
Chain of Cdk9/cyclinT1 (O60563 whole entry partner): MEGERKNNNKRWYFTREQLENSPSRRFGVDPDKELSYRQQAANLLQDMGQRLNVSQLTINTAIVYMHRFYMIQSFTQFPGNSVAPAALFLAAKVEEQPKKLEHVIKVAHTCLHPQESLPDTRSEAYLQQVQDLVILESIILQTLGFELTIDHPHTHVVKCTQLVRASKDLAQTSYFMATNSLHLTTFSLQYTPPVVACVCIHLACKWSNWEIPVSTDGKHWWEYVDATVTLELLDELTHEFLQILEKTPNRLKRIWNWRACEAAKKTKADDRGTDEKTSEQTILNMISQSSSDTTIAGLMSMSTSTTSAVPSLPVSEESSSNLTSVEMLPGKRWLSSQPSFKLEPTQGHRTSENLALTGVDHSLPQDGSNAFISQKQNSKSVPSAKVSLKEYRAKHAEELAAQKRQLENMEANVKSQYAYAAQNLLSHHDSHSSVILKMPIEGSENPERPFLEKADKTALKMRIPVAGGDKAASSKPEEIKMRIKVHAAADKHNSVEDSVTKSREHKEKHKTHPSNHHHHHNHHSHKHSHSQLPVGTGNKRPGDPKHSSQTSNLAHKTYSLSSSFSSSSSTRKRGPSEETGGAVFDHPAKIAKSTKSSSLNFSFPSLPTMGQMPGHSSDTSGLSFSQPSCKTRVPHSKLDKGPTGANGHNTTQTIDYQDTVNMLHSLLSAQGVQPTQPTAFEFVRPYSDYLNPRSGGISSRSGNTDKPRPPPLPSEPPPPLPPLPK

Take `N#CC1(CNc2cccc(-c3cc(N[C@@H]4CC[C@@H](NCC5CCCO5)C4)ncc3Cl)n2)CCOCC1` (stereo partly drawn) [Compound 410, 4-(((5′-chloro-2′-(((1R,3R)-3-(((tetrahydrofuran-2-yl)methyl)amino)cyclopentyl)amino)-[2,4′-bypyridin]-6-yl)amino)methyl)tetrahydro-2H-pyran-4-carbonitrile]: the half-maximal inhibitory concentration (IC50) is under 0.5 nM.

Regarding `COC[C@H](C)N[C@H]1CC[C@H](Nc2cc(-c3ccc(F)c(NCC4CCOC(C)(C)C4)n3)c(Cl)cn2)CC1` (stereo partly drawn) [Compound 457, 5′-chloro-N6-((2,2-dimethyltetrahydro-2H-pyran-4-yl)methyl)-5-fluoro-N2′-(trans-4-(((S)-1-methoxypropan-2-yl)amino)cyclohexyl)-[2,4′-bipyridine]-2′,6-diamine], it took 1.6 nM to reach half-maximal inhibition (IC50).

Turning to `N#CC1(CNc2cccc(-c3cc(NC4CCC(N)CC4)ncc3Cl)n2)CC1` (stereo not drawn) [Compound 413, 1-(((2′-((4-aminocyclohexyl)amino)-5′-chloro-[2,4′-bipyridin]-6-yl)amino)methyl)cyclopropane-carbonitrile], the half-maximal inhibitory concentration (IC50) was under 0.5 nM. For the molecule `COC[C@@H](C)N[C@H]1CC[C@H](Nc2cc(-c3cncc(OCC4(C#N)CCOCC4)n3)c(Cl)cn2)CC1` [Compound 509, 4-(((6-(5-chloro-2-((trans-4-(((R)-1-methoxypropan-2-yl)amino)cyclohexyl)amino)pyridin-4-yl)pyrazin-2-yl)oxy)methyl)tetrahydro-2H-pyran-4-carbonitrile], 1.1 nM corresponded to half-maximal inhibition (IC50). With `N#CC1(CNc2cccc(-c3cc(N[C@H]4CC[C@H](NC5CCOC5)CC4)ncc3Cl)n2)CCOCC1` (stereo partly drawn) [Compound 467, 4-(((5′-chloro-2′-((trans-4-((tetrahydrofuran-3-yl)amino)cyclohexyl)amino)-[2,4′-bipyridin]-6-yl)amino)methyl)tetrahydro-2H-pyran-4-carbonitrile], the IC50 was under 0.5 nM. For `COCCN[C@@H]1CC[C@@H](Nc2cc(-c3cccc(NCC4(C#N)CCOCC4)n3)c(Cl)cn2)C1` [Compound 409, 4-(((5′-chloro-2′-(((1R,3R)-3-((2-methoxyethyl)amino)cyclopentyl)amino)-[2,4′-bipyridin]-6-yl)amino)methyl)tetrahydro-2H-pyran-4-carbonitrile], the half-inhibitory concentration (IC50) is 0.6 nM.

For `N#CC1(CNc2cccc(-c3cc(N[C@H]4CC[C@H](NC[C@H](O)C(F)(F)F)CC4)ncc3Cl)n2)CCOCC1` [Compound 490, 4-(((5′-chloro-2′-((trans-4-(((S)-3,3,3-trifluoro-2-hydroxypropyl)amino)cyclohexyl)amino)-[2,4′-bipyridin]-6-yl)amino)methyl)tetrahydro-2H-pyran-4-carbonitrile], the concentration for half-maximal inhibition (IC50) is under 0.5 nM. Then `N#CC1(CNc2cccc(-c3cc(N[C@H]4CC[C@H](NCC5CCCO5)CC4)ncc3F)n2)CCOCC1` (stereo partly drawn) [Compound 482, 4-(((5′-fluoro-2′-((trans-4-(((tetrahydrofuran-2-yl)methyl)amino)cyclohexyl)amino)-[2,4′-bipyridin]-6-yl)amino)methyl)tetrahydro-2H-pyran-4-carbonitrile], with under 0.5 nM; and `C[C@@H]1COCCN1[C@H]1CC[C@H](Nc2cc(-c3cccc(NCC4(C#N)CCOCC4)n3)c(Cl)cn2)CC1` [Compound 503, 4-(((5′-chloro-2′-((trans-4-((R)-3-methylmorpholino)cyclohexyl)amino)-[2,4′-bipyridin]-6-yl)amino)methyl)tetrahydro-2H-pyran-4-carbonitrile], with 2.6 nM. `N#CC1(CNc2cccc(-c3cc(N[C@H]4CC[C@H](N5CCNC(=O)C5)CC4)ncc3Cl)n2)CCOCC1` [Compound 417] came in with an IC50 of 1.3 nM. This IC50 is about 2-fold lower than that of the molecule before. `COC[C@]1(O)CC[C@@H](Nc2cc(-c3cccc(NCC4CCOCC4)n3)c(Cl)cn2)CC1` [Compound 447, Cis-4-((5′-chloro-6-(((tetrahydro-2H-pyran-4-yl)methyl)amino)-[2,4′-bipyridin]-2′-yl)amino)-1-(methoxymethyl)cyclohexanol]: 42 nM corresponded to half-maximal inhibition (IC50). Then `COCCN[C@H]1CC[C@H](Nc2cc(-c3nc(NCC4(C#N)CCOCC4)cnc3Cl)c(Cl)cn2)CC1` [Compound 508, 4-(((5-chloro-6-(5-chloro-2-((trans-4-((2-methoxyethyl)amino)cyclohexyl)amino)pyridin-4-yl)pyrazin-2-yl)amino)methyl)tetrahydro-2H-pyran-4-carbonitrile], with under 0.5 nM; and `N#CC1(CNc2cccc(-c3cc(N[C@H]4CC[C@H](NC[C@H]5CCCO5)CC4)ncc3F)n2)CCOCC1` [Compound 484, 4-(((5′-fluoro-2′-((trans-4-((((R)-tetrahydrofuran-2-yl)methyl)amino)cyclohexyl)amino)-[2,4′-bipyridin]-6-yl)amino)methyl)tetrahydro-2H-pyran-4-carbonitrile], with under 0.5 nM; and `N#CC1(CNc2cccc(-c3cc(N[C@H]4CC[C@H](N[C@H]5CCOC5)CC4)ncc3Cl)n2)CCOCC1` [Compound 469, 4-(((5′-chloro-2′-((trans-4-(((S)-tetrahydrofuran-3-yl)amino)cyclohexyl)amino)-[2,4′-bipyridin]-6-yl)amino)methyl)tetrahydro-2H-pyran-4-carbonitrile], with under 0.5 nM. For the molecule `N#CC1(CNc2cccc(-c3cc(N[C@H]4CC[C@H](N5CCCC5)CC4)ncc3Cl)n2)CCOCC1` [Compound 434, 4-(((5′-chloro-2′-((trans-4-(pyrrolidin-1-yl)cydohexyl)amino)-[2,4′-bipyridin]-6-yl)amino)methyl)tetrahydro-2H-pyran-4-carbonitrile], the IC50 was at most 0.5 nM.

Turning to `COCCNC(=O)[C@H]1CC[C@H](Nc2cc(-c3cccc(NCC4(C#N)CCOCC4)n3)c(Cl)cn2)CC1` [Compound 455, trans-4-((5′-chloro-6-(((4-cyanotetrahydro-2H-pyran-4-yl)methyl)amino)-[2,4′-bipyridin]-2′-yl)amino)-N-(2-methoxyethyl)cyclohexane-carboxamide], the IC50 amounted to 0.8 nM. This lies in the sub-nanomolar range. Then `CC1(C)CN([C@H]2CC[C@H](Nc3cc(-c4cccc(NCC5(C#N)CCOCC5)n4)c(Cl)cn3)CC2)CCO1` [Compound 416, 4-(((5′-chloro-2′-((trans-4-(2,2-dimethylmorpholino)cyclohexyl)amino)-[2,4′-bipyridin]-6-yl)amino)methyl)tetrahydro-2H-pyran-4-carbonitrile], with 21 nM. Under `COCC(=O)NC[C@H]1CC[C@H](Nc2cc(-c3cccc(NCC4(C#N)CCOCC4)n3)c(Cl)cn2)CC1` [Compound 498, N-((trans-4-((5′-chloro-6-(((4-cyanotetrahydro-2H-pyran-4-yl)methyl)amino)-[2,4′-bipyridin]-2′-yl)amino)cyclohexyl)methyl)-2-methoxyacetamide] stands under 0.5 nM. The molecule `CC1(CN[C@H]2CC[C@H](Nc3cc(-c4cccc(NCC5(C#N)CCOCC5)n4)c(Cl)cn3)CC2)COC1` [Compound 430, 4-(((5′-chloro-2′-((trans-4-(((3-methyloxetan-3-yl)methyl)amino)cyclohexyl)amino)-[2,4′-bipyridin]-6-yl)amino)methyl)tetrahydro-2H-pyran-4-carbonitrile] gave an IC50 of 1 nM. `C[C@H]1COCCN1[C@H]1CC[C@H](Nc2cc(-c3cccc(NCC4(C#N)CCOCC4)n3)c(Cl)cn2)CC1` [Compound 502, 4-((5′-chloro-2′-(trans-4-((S)-3-methylmorpholino)cyclohexyl-amino)-2,4′-bipyridin-6-ylamino)methyl)tetrahydro-2H-pyran-4-carbonitrile] came in with a 50% inhibitory concentration (IC50) of 2.9 nM. Then `CC(C)(NC[C@H]1CC[C@H](Nc2cc(-c3cccc(NCC4(C#N)CCOCC4)n3)c(Cl)cn2)CC1)C(=O)O` [Compound 429, 2-(((trans-4-((5′-chloro-6-(((4-cyanotetrahydro-2H-pyran-4-yl)methyl)amino)-[2,4′-bipyridin]-2′-yl)amino)cyclohexyl)methyl)amino)-2-methylpropanoic acid], with 1.3 nM; and `COC[C@@H](C)N[C@H]1CC[C@H](Nc2cc(-c3nc(NCC4(C#N)CCOCC4)cnc3Cl)c(Cl)cn2)CC1` [Compound 506, 4-(((5-chloro-6-(5-chloro-2-((trans-4-(((R)-1-methoxypropan-2-yl)amino)cyclohexyl)amino)pyridin-4-yl)pyrazin-2-yl)amino)methyl)tetrahydro-2H-pyran-4-carbonitrile], with at most 0.5 nM; and `N#CC1(CNc2cccc(-c3cc(N[C@H]4CC[C@H](NCC5(C#N)CC5)CC4)ncc3Cl)n2)CCOCC1` [Compound 414, 4-(((5′-chloro-2′-((trans-4-(((1-cyanocyclopropyl)methyl)amino)cyclohexyl)amino)-[2,4′-bipyridin]-6-yl)amino)methyl)tetrahydro-2H-pyran-4-carbonitrile], with under 0.5 nM. Take `N#CC1(CNc2cccc(-c3cc(NC4CNC4)ncc3Cl)n2)CCOCC1` [Example 401]: it took 81 nM to reach half-maximal inhibition (IC50). `COC[C@H](C)N[C@H]1CC[C@H](Nc2cc(-c3cccc(NCC4(C#N)CCOCC4)n3)c(F)cn2)CC1` [Compound 489, 4-(((5′-fluoro-2′-((trans-4-(((S)-1-methoxypropan-2-yl)amino)cyclohexyl)amino)-[2,4′-bipyridin]-6-yl)amino)methyl)tetrahydro-2H-pyran-4-carbonitrile] registered an IC50 of at most 0.5 nM. Then `COC[C@@H](C)N[C@H]1CC[C@H](Nc2cc(-c3cccc(NCC4(C#N)CC4)n3)c(F)cn2)CC1` [Compound 480, 1-(((5′-fluoro-2′-((trans-4-(((R)-1-methoxypropan-2-yl)amino)cyclohexyl)amino)-[2,4′-bipyridin]-6-yl)amino)methyl)cyclopropane-carbonitrile], with under 0.5 nM; and `CC(C)(CO)N[C@H]1CC[C@H](Nc2cc(-c3cccc(NCC4(C#N)CCOCC4)n3)c(Cl)cn2)CC1` [Compound 453, 4-(((5′-chloro-2′-((trans-4-((1-hydroxy-2-methylpropan-2-yl)amino)cyclohexyl)amino)-[2,4′-bipyridin]-6-yl)amino)methyl)tetrahydro-2H-pyran-4-carbonitrile], with under 0.5 nM.

Source of the values: US20130303507A1 (Novartis AG, priority 2011, published 2013).
